Laboratory results reported in patent publication US11142515B2, “Pyrazolyl-ureas as kinase inhibitors” (RESPIVERT LIMITED, priority 2014, dated 2021).

Assays:
[1] = target: T1, p38 MAPKα isoform (MAPK14) (Homo sapiens, UniProt Q16539); experiment: p38 MAPKα enzyme inhibition (Z-LYTE FRET); type: biochemical; conditions: Table 2B, unit inferred; read-out: p38 MAPKα (Enzyme Profile)
T1 construct: purchased Life Technologies
Protocol: The enzyme inhibitory activities of compounds disclosed herein were determined by FRET using synthetic peptides labelled with both donor and acceptor fluorophores (Z-LYTE, Life Technologies, Paisley, UK).
The inhibitory activities of compounds of the invention against the p38 MAPKα isoform (MAPK14: Life Technologies), were evaluated indirectly by determining the level of activation/phosphorylation of the target peptide of the p38 MAPKα down-stream molecule, MAPKAP-K2. The enzyme (40 ng/mL, 2.5 μL) was incubated with the test compound (2.5 μL of either 40 μg/mL, 12 μg/mL, 4 μg/mL, 1.2 μg/mL, 0.4 μg/mL, 0.12 μg/mL, 0.04 μg/mL, 0.012 μg/mL, 0.004 μg/mL or 0.0012 μg/mL) for 2 h at RT. […] Development reagent (protease, 5 μL) was added for 1 h prior to detection in a fluorescence microplate reader (EnVision, Perkin Elmer, Waltham, Mass., USA).
In all cases, the site-specific protease cleaves non-phosphorylated peptide only and eliminates the FRET signal. Phosphorylation levels of each reaction were calculated using the ratio of coumarin emission (donor) over fluorescein emission (acceptor), for which low ratios indicate high phosphorylation and high ratios indicate low phosphorylation levels.

p38MAPKγ (MAPK12) = target: T2, p38MAPKγ (MAPK12) (Homo sapiens, UniProt P53778); experiment: p38 MAPKγ enzyme inhibition (Z-LYTE FRET); type: biochemical; conditions: Table 2B, unit inferred; read-out: p38 MAPKγ (Enzyme Profile)
T2 construct: purchased Life Technologies
T2 sequence (P53778 1-367): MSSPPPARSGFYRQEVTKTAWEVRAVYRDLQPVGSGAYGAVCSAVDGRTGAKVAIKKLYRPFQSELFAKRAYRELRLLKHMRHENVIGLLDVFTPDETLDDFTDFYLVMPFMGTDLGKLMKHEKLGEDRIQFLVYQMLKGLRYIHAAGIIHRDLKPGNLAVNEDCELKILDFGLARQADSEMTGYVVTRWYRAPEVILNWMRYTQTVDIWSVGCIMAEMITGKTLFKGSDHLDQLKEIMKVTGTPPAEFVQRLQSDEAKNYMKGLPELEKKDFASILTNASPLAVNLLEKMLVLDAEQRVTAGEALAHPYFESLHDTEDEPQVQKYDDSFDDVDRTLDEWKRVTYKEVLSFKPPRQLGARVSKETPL
Outline: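 Enzyme (added at 800 ng/mL) was preincubated 2 h at RT with compound (solutions of 40 to 0.0012 μg/mL), then FRET peptide (8 μM) and ATP (400 μM), both as added, were reacted 1 h at RT. Protease development followed for 1 h; phosphorylation was read as the coumarin/fluorescein emission ratio.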

T1 sequence (Q16539 whole entry, canonical isoform): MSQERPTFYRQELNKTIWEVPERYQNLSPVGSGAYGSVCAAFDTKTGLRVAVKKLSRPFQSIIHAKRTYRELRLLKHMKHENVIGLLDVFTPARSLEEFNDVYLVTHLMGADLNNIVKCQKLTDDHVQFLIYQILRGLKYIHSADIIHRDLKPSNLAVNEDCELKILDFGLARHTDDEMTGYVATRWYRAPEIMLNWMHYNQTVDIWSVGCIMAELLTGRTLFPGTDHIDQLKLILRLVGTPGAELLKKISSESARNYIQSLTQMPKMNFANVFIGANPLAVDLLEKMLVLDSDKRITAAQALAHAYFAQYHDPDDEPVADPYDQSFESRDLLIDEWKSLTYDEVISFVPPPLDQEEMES

Structure (SMILES)	IC50 [1] [nM]	IC50 (p38MAPKγ (MAPK12)) [nM]
CCOc1cncc(Nc2cc(COc3ccc(NC(=O)Nc4cc(C(C)(C)C)nn4-c4ccc(C)cc4)c4ccccc34)ccn2)n1 [Example 116, 1-(3-(tert-butyl)-1-(p-tolyl)-1H-pyrazol-5-yl)-3-(4-((2-((6-ethoxypyrazin-2-yl)amino)pyridin-4-yl)methoxy)naphthalen-1-yl)urea]	23	2820
Cc1ccc(-n2nc(C(C)(C)C)cc2NC(=O)Nc2ccc(OCc3ccnc(Nc4cncc(NC(C)C)n4)c3)c3ccccc23)cc1 [Example 117, 1-(3-(tert-butyl)-1-(p-tolyl)-1H-pyrazol-5-yl)-3-(4-((2-((6-(isopropylamino)pyrazin-2-yl)amino)pyridin-4-yl)methoxy)naphthalen-1-yl) urea]	16	150
Cc1ccc(-n2nc(C(C)(C)C)cc2NC(=O)Nc2ccc(OCc3ccnc(Nc4cncc(N5CCOCC5)n4)c3)c3ccccc23)cc1 [Example 118, 1-(3-(tert-butyl)-1-(p-tolyl)-1H-pyrazol-5-yl)-3-(4-((2-((6-morpholinopyrazin-2-yl)amino)pyridin-4-yl)methoxy)naphthalen-1-yl) urea]	5.5	115
Cc1ccc(-n2nc(C(C)(C)C)cc2NC(=O)Nc2ccc(OCc3ccnc(Nc4cncc(NC5CC5)n4)c3)c3ccccc23)cc1 [Example 119, 1-(3-(tert-butyl)-1-(p-tolyl)-1H-pyrazol-5-yl)-3-(4-((2-((6-(cyclopropylamino)pyrazin-2-yl)amino)pyridin-4-yl)methoxy)naphthalen-1-yl)urea]	13	175
CNc1cncc(Nc2cc(COc3ccc(NC(=O)Nc4cc(C(C)(C)C)nn4-c4ccc(C)cc4)c4ccccc34)ccn2)n1 [Example 120, 1-(3-(tert-butyl)-1-(p-tolyl)-1H-pyrazol-5-yl)-3-(4-((2-((6-(methylamino)pyrazin-2-yl)amino)pyridin-4-yl)methoxy)naphthalen-1-yl) urea]	4.8	173
Cc1ccc(-n2nc(C(C)(C)C)cc2NC(=O)Nc2ccc(OCc3ccnc(Nc4cncc(OCCO)n4)c3)c3ccccc23)cc1 [Example 121, 1-(3-(tert-butyl)-1-(p-tolyl)-1H-pyrazol-5-yl)-3-(4-((2-((6-(2-hydroxyethoxy)pyrazin-2-yl)amino)pyridin-4-yl)methoxy)naphthalen-1-yl)urea]	38	79
Cc1ccc(-n2nc(C(C)(C)C)cc2NC(=O)Nc2ccc(OCc3ccnc(Nc4cncc(OCC(C)C)n4)c3)c3ccccc23)cc1 [Example 122, 1-(3-(tert-butyl)-1-(p-tolyl)-1H-pyrazol-5-yl)-3-(4-((2-((6-isobutoxypyrazin-2-yl)amino)pyridin-4-yl)methoxy)naphthalen-1-yl) urea]	2780	8740
Cc1ccc(-n2nc(C(C)(C)C)cc2NC(=O)Nc2ccc(OCc3ccnc(Nc4cncc(N5CC(O)C5)n4)c3)c3ccccc23)cc1 [Example 123, 1-(3-(tert-butyl)-1-(p-tolyl)-1H-pyrazol-5-yl)-3-(4-((2-((6-(3-hydroxyazetidin-1-yl)pyrazin-2-yl)amino)pyridin-4-yl)methoxy)naphthalen-1-yl)urea]	60	171
Cc1ccc(-n2nc(C(C)(C)C)cc2NC(=O)Nc2ccc(OCc3ccnc(Nc4cnc(C(=O)NCCOC(C)C)cn4)c3)c3ccccc23)cc1 [Example 124, 5-((4-(((4-(3-(3-(tert-butyl)-1-(p-tolyl)-1H-pyrazol-5-yl)ureido)naphthalen-1-yl)oxy)methyl)pyridin-2-yl)amino)-N-(2-isopropoxy-ethyl)pyrazine-2-carboxamide]	288	> 13700
Cc1ccc(-n2nc(C(C)(C)C)cc2NC(=O)Nc2ccc(OCc3ccnc(Nc4cnc(C(=O)NCCOC(C)(C)C)cn4)c3)c3ccccc23)cc1 [Example 125, N-(2-(tert-butoxy)ethyl)-5-((4-(((4-(3-(3-(tert-butyl)-1-(p-tolyl)-1H-pyrazol-5-yl)ureido)naphthalen-1-yl)oxy)methyl)pyridin-2-yl)amino)pyrazine-2-carboxamide]	302	> 13500
